Measurements taken from patent US20180141987A1, “Novel Synthetic Antimicrobial Peptides” (priority 2014, published 2018).
Values after ≈ are worked out from the molar mass of the structure shown. Where two headings read alike, the source gives them in different places. No end group written: not given here.

Tests used:
[1] = test system: Ustilago maydis
Experimental: (§1) iii. In Vitro Antifungal Assays • In vitro antifungal assays were performed in RPMI-1640 medium by broth micro dilution according to the Clinical and Laboratory Standards Institute (CLSI, formerly NCCL) methods M27-A3 and M-38-A2. […] Amphotericin B was used as positive control.

[2] = test system: Candida albicans
Experimental: as §1

[3] = test system: Fusarium oxysoprum
Experimental: as §1

[4] = test system: Aspergillus niger
Experimental: as §1

[5] = test system: Neurospora crassa
Experimental: as §1

[6] = test system: Cryptococcus
Experimental: as §1

[7] = test system: Salmonella enterica; assay: Inhibitory activity against bacteria (MIC 90); assay type: cell-based
[8] = test system: Pseudomonas aeruginosa; assay: microbe, parasite or virus in culture; assay type: cell-based
[9] = test system: Escherichia coli; assay: microbe, parasite or virus in culture; assay type: cell-based
[10] = test system: Staphylococcus aureus; assay: microbe, parasite or virus in culture; assay type: cell-based
[11] = test system: Candida albicans cells; assay: ROS generation (DCFH-DA fluorescence); assay type: cell-based; details: peptides at their respective MICs, FIG. 6
Experimental: (§2) FIG. 6 depicts the membrane damage and reactive oxygen species (ROS) generation by the instant peptides (a) Untreated Control, (b) positive control (c) […] (known peptide sequence, not novel, not to be covered in the invention, was used only for comparison), (d)Seq IDNo. 2, (e) Seq IDNo. 3 and (f) Seq IDNo. 1, after incubation of peptides at their respective MICs with the Candida albicans cells. i. Membrane Damage and ROS Generation • The membrane damage and formation of ROS (Reactive oxygen species) are the antifungal mechanisms of a number of antimicrobial peptides. The membrane damage (middle panel) and ROS generation by the instant peptides (right panel) was monitored after incubation of peptides at their respective MICs with the Candida albicans cells as depicted in FIG. 6(a-f). A red fluorescence resulting from the membrane impermeable DNA binding dye propidium iodide was observed indicating the membrane damage in the cells due to action of peptides under study. A green fluorescence resulting from the oxidation of dye Dichloro-dihydro-fluorescein diacetate DCFH-DA (non-fluorescent molecule) into DCF 2',7'-dichlorofluorescein. (fluorescent molecule) was observed indicating the presence of ROS.

[12] = test system: human and plant pathogens; assay: In vitro antifungal assays, all cultures tested; assay type: cell-based; details: human and plant pathogenic fungi
Experimental: as §1

[13] = test system: Yeast-Hypha transition; assay: Yeast-Hypha transition inhibition; assay type: cell-based; details: at 4 μg/ml; Table 10 has no title
Experimental: ii. Yeast-Hypha Transition Inhibition. • The peptides were also tested for the Yeast-Hypha transition inhibition. In many human and plant pathogenic fungi direct correlation between the ability of fungus to switch between yeast (Y) and hypha (H) forms and pathogenicity have been reported (Jacobsen et al., 2012; Thompson et al., 2011; Nadal et al., 2008).

[14] = test system: Candida albicans cells; assay: Membrane damage (propidium iodide fluorescence); assay type: cell-based; details: peptides at their respective MICs, FIG. 6
Experimental: as §2

[15] = MTT assay, cytotoxicity; assay type: cell-based, human; details: human, HeLa cells, concentration not given
Experimental: (§3) The cytolytic acivity of the present peptides was assessed by the MTT (3-(4,5-dimethylthiazol-2-yl)-2,5-diphenyltetrazolium bromide) assay against human cell lines (Hela cells). The cytotoxicity of on HeLa cells was assessed Approximately 10^4 cells per well were seeded in a 96-well plate and incubated for 12-16 h at 37° C.

[16] = test system: Hela cells; assay: MTT assay, cytotoxicity; assay type: cell-based, human; details: concentration not given
Experimental: as §3

[17] = test system: human erythrocyte; assay: Hemolytic activity, release of haemoglobin from erythrocyte suspensions in PBS; assay type: cell-based; details: human erythrocytes
Experimental: The toxicity of the present cationic, alpha-helical antimicrobial peptides on blood cells to determine their suitability for systemic application was performed. Lysis of erythrocyte membranes was determined by monitoring the release of haemoglobin from human erythrocyte suspensions in PBS, in relation to complete (100%) haemolysis. Table 13(a) provides the % hemolytic activity observed when a series of concentrations of the present peptides were brought in contact with erythrocytes. There was absence of any hemolytic activity upto concentrations in the range of 130 to 200 μg/mL. However at concentration above 250 μg/mL, a minimal level of hemolysis was observed.

[18] = test system: Gram positive and Gram negative bacteria; assay: Inhibitory activity against bacteria, all cultures; assay type: cell-based

| Compound | MIC 90 [1] [µg/mL] | MIC 90 [2] [µg/mL] | MIC 90 [3] [µg/mL] | MIC 90 [4] [µg/mL] | MIC 90 [5] [µg/mL] | MIC 90 [6] [µg/mL] | Antifungal potency in words, all the cultures tested [12] | Y-H transition inhibition [13] [%] | MIC 90 [8] [µg/mL] | MIC 90 [9] [µg/mL] | MIC 90 [10] [µg/mL] | MIC 90 [7] [µg/mL] | viability [15] [%] | O.D. (Treated Cells) [16] | Hemolytic activity ([17]; 256 μg/mL) [%] | Hemolytic activity ([17]; 512 μg/mL) | Hemolytic activity ([17]; 1024 μg/mL) [%] | also measured |
| --- | --- | --- | --- | --- | --- | --- | --- | --- | --- | --- | --- | --- | --- | --- | --- | --- | --- | --- |
| C[C@@H]1[C@H](O)[C@@H](C)/C=C/C=C/C=C/C=C/C=C/C=C/C=C/[C@H](O[C@@H]2O[C@H](C)[C@@H](O)[C@H](N)[C@@H]2O)C[C@@H]2O[C@](O)(C[C@@H](O)C[C@@H](O)[C@H](O)CC[C@@H](O)C[C@@H](O)CC(=O)O[C@H]1C)C[C@H](O)[C@H]2C(=O)O [Ampho B, Amphotericin B, reference compound] |  |  |  |  |  |  |  |  |  |  |  |  |  |  |  |  |  | MIC 90 ([1]; Ustilago maydis, RPMI-1640): 4 µg/mL (≈ 4.33 µM); MIC 90 ([2]; Candida albicans, RPMI-1640): 4 µg/mL (≈ 4.33 µM); MIC 90 ([3]; Fusarium oxysoprum, RPMI-1640): 8 µg/mL (≈ 8.66 µM); MIC 90 ([4]; Aspergillus niger, RPMI-1640): 8 µg/mL (≈ 8.66 µM); MIC 90 ([5]; Neurospora crassa, RPMI-1640): 4 µg/mL (≈ 4.33 µM); MIC 90 ([6]; Cryptococcus, RPMI-1640): 4 µg/mL (≈ 4.33 µM) |
| CC1(C)S[C@@H]2[C@H](NC(=O)[C@H](N)c3ccccc3)C(=O)N2[C@H]1C(=O)O [Ampicillin, ampicillin, reference compound] |  |  |  |  |  |  |  |  |  |  |  |  |  |  |  |  |  | MIC 90 ([7]; read-out: MIC 90): 4 µg/mL (≈ 11.4 µM); MIC 90 ([8]; Pseudomonas aeruginosa, read-out: MIC 90): 2 µg/mL (≈ 5.72 µM); MIC 90 ([9]; Escherichia coli, read-out: MIC 90): 4 µg/mL (≈ 11.4 µM); MIC 90 ([10]; Staphylococcus aureus, read-out: MIC 90): 2 µg/mL (≈ 5.72 µM) |
| FKLRAKIKVRLRAKIKL [D4E1, reference compound] | 32 | 8 | 16 | 16 | 8 | 4 | most potent | 95.2 | 2 | 2 | 2 |  |  |  |  |  |  | ROS generation [11]: higher; Relative potency in membrane damage and ROS generation [14]: more potent |
| FRLKFHLKF-NH2 [Seq Id No: 2] | 16 | 8 | 8 | 16 | 8 | 4 |  |  | 2 | 2 | 2 | 2 | 100 | 1.0185 | 2 | 3.2%^ | 7 |  |
| VLKKLKKLC-NH2 [Seq Id No: 3] | 32 | 64 | 32 | 16 | 16 | 16 | moderate activity | 87.5 | 4 | 2 | 4 | 2 | 88 | 0.8325 | 2 | 2.9% | 5.7 | Potency towards Gram positive versus Gram negative bacteria [18]: higher potency towards Gram positive |
